Experimental findings from US8895302B2, “Directed differentiation of primate pluripotent stem cells into functional basal forebrain cholinergic neurons (BFCNs) and medium spiny gabaergic projection neurons” (Wisconsin Alumni Research Foundation, priority 2010, dated 2014) are described below.

For assay [1], the system named is hESC-derived cholinergic neurons. Kind of assay: Whole-cell patch clamp, spontaneous synaptic currents of hESC-derived BFCNs. It counts as cell-based, human. The following applies: CNQX 20 μM in bath, BFCNs differentiated 8-10 weeks. Here is the method:
Whole-cell patch-clamp recordings were made from hESC-derived cholinergic neurons at 8-10 weeks age as previously reported (Johnson et al., 2007). Briefly, the neurons were held at −70 mV to record the spontaneous release and Na+/K+ channel activities. For action potential recording, the cells were held at 0 pA with current-clamp model and the steps of currents from +[…] were injected into cells by the holding electrode. The bath solution consisted of 127 mM NaCl, 1.2 mM KH2PO4, 1.9 mM KCl, 26 mM NaHCO3, 2.2 mM CaCl2, 1.4 mM MgSO4, 10 mM glucose, 290 mM mOsm and 95% O2/5% CO2. Recording pipettes were filled with an intracellular recording solution consisting of 20 mM KCl, 121 mM K^+-gluconate, 10 mM Na^+-HEPES, 10 mM BAPTA, 4 mM Mg2^+-ATP pH 7.2 and 290 mOm. Bicuculline (20 μM; Sigma) or 6-cyano-7-nitroquinoxiline-2,3-dione (CNQX, 20 μM; RBI) was applied to the bath solution to distinguish inhibitory (GABAergic) and excitatory (glutamatergic) response. Biocytin (1%, Sigma) was injected into cells after recording to identify the neuronal identity. An Olympus BX51WI microscope was used to visualize neurons. […] Data were analyzed with pClamp 9.0 (Axon instruments). […]
To determine the functionality of the hESC-derived BFCNs, we first measured the electrophysiological properties of the BFCNs that were differentiated for 8-10 weeks by whole cell patch clamping recording (FIG. 3). […]
(The patch-clamp technique gives a direct electrical read-out from membranes.)

The test system of a further assay is striatum. Kind of assay: Unilateral QA-induced striatal lesion. The assay is classed as in vivo, SCID mice. How it is done:
Twenty-four male SCID mice (10 weeks of age) were anesthetized with 1-2% isoflurane mixed in oxygen, and received stereotaxic injection of 2 μl 0.1M quinolinic acid (QA, P63204; Sigma, in saline with 0.2 mg/ml ascorbic acid) in the right striatum at the coordinates (anterior-posterior (AP)=−0.7 mm, lateral (L)=+1.7 mm, vertical (V)=−3.2 mm) to create the unilateral lesion (Hansson et al., 1999).
To assess the function of in vitro produced human medium spiny GABA projection neurons, we created a unilateral QA-induced striatal lesion model in immune deficient SCID mice (Sanberg et al., 1989; Reynolds et al., 2006). Four weeks post injection of QA, majority of neurons, as labeled by NeuN, including FoxP2 and DARPP32 expressing GABA projection neurons in the striatum were lost, resulting in a smaller striatum in the lesion side as compared to the non-lesion side. Accompanying the loss of neurons, there was a significant increased level of GFAP expression in astrocytes.

Assay [2] deals with hESC-derived primitive neural stem cells. Kind of assay: Patterning of hESC-derived primitive neural stem cells to ventral telencephalic progenitors (immunocytochemistry, FACS, Western blotting). It counts as cell-based, human. How it is done: (§1) The procedure for differentiating hESCs to neuroectodermal cells was the same as described (Li et al., 2005; Zhang et al., 2001). hESCs were differentiated to Pax6-expressing primitive neural stem cells for 10-12 days in a neural induction medium consisting of DMEM/F12, N2 supplement and non-essential amino acids (Pankratz et al., 2007; Zhang et al., 2001). The primitive neural stem cells were then treated with SHH (50-1000 ng/ml) or its small molecule agonist purmorphamine (0.1-1.5 uM, Calbiochem, San Diego, Calif., USA) from day 12 to day 26 to specify ventral progenitors. During this period, neural stem cells grew rapidly and formed neural tube-like rosettes, which were gently blown off at day 15-17 and grown in suspension under the same medium. For neuronal differentiation, neural progenitor clusters were dissociated with Accutase at 37° C. for 5 minutes and plated onto ornithine/laminin-coated coverslips at day 26 in Neurobasal medium.
Immunocytochemical staining on coverslip cultures and free-floating brain sections was performed as previously described (Li et al., 2005; Yang et al., 2008). The images were visualized using a Nikon TE600 fluorescence microscope (Nikon Instruments, Melville, N.Y., USA) or a Nikon C1 laser-scanning confocal microscope.
Protein samples were collected at day 25 after differentiation. Western blot analysis was performed as described (Li et al., 2009). Proteins (25 μg) were separated by 10% acrylamide gel and blotted with antibodies against Nkx2.1 (1:2,000, Mouse IgG, Chemicon & Millipore), Pax6 (1:4,000, Rabbit IgG, Covance), and β-actin (1:4,000, Mouse IgG, Sigma).
To quantify the differentiation efficiency of forebrain progenitors, neural progenitor spheres were dissociated into single cells and quantified by fluorescent activated cell sorting (FACS) (LaVaute et al., 2009). For quantifying differentiated cholinergic neurons, the neural progenitor spheres were digested with Accutase (Innovation Cell Technology) into small clusters and plated on coverslips for immunostaining as previous described (Li et al., 2005; Hu et al., 2009). Optical fields of cultures were randomly selected, and the neuronal cells and total cells (Hoechst stained) were counted using a Metamorph software. All the experiments were triplicated and the results were reproduced in two different cell lines (H1 and H9). For statistical analysis, 2-side t-test was used.
hESCs were first differentiated to Pax6-expressing pNSCs in a chemically defined medium as previously described (Johnson et al., 2007; Li et al., 2005; Zhang et al., 2001). We first determined the time course of SHH action by applying SHH for a week at day 10, 13, and 17 and by quantifying cells that express Nkx2.1, an MGE transcription factor.
Basal forebrain cholinergic neurons (BFCNs) are differentiated from progenitors in the MGE and POa/AEP domains that express Nkx2.1 (Wilson and Rubenstein, 2000; Zhao et al., 2003). […] In contrast, the expression of dorsal telencephalic transcription factors, Pax6 and Emx1, was decreased (FIG. 1B). Immunostaining and Western blotting analyses confirmed that Nkx2.1-expressing cell population increased progressively, with 97±1.3% of the cells being Nkx2.1 positive in the presence of 1000 ng/ml of SHH, whereas the population of Pax6 positive dorsal progenitors decreased, to less than 0.01% under 1000 ng/mlof SHH (FIG. 1C, D, E).

For assay [3] the test system is unchanged. Kind of assay: RT-qPCR of dorsal/ventral transcription factors in patterned neural stem cells. It counts as cell-based, human. The following applies: SHH 200 or 0.65 uM of purmorphamine, day 25. How it is done: as §1
Total RNA was extracted using Trizol reagent (Invitrogen), and cDNA was reverse-transcribed using the SuperScript III First-Strand (Invitrogen). Real-time PCR was performed using the Bio-Rad MyiQ real-time PCR detection system as described (Du et al., 2009).
Basal forebrain cholinergic neurons (BFCNs) are differentiated from progenitors in the MGE and POa/AEP domains that express Nkx2.1 (Wilson and Rubenstein, 2000; Zhao et al., 2003). […]
(Quantitative PCR measures a nucleic acid by following its amplification.)

Setting [4] is: SHH 200 ng/ml or purmorphamine 0.65 uM, day 30.

Turning to `N#Cc1cc2[nH]c(=O)c(=O)[nH]c2cc1[N+](=O)[O-]` [CNQX, 6-cyano-7-nitroquinoxiline-2,3-dione], the spontaneous synaptic activity entry in assay [1] is “partially blocked”.
In the case of `O=C(O)c1cccnc1C(=O)O` [QA, quinolinic acid], the “stride length on the right limbs versus control animals that received aCSF (Treadscan)” value in the assay with striatum (lesioned mice) is given as “longer stride length”. In addition, the “behavioural outcome of unilateral striatal lesion” value with striatum (rotarod, open field, Treadscan) is listed as “locomotion deficits typical of HD”.
For `c1ccc2c(Oc3nc(Nc4ccc(N5CCOCC5)cc4)c4ncn(C5CCCCC5)c4n3)cccc2c1` [purmorphamine], in assay [2] (setting [4]), the “GABA interneuron progenitor marker Nkx2.1 (immunostaining)” value is “minimal expression”; the “cortical marker Pax6 (immunostaining)” value is listed as “decreased expression”; the “striatal GABA neuron progenitor markers Meis2, Mash1 and Otx2 (immunostaining)” value is recorded as “increased expression”. Further, in assay [2] (pNSCs treated at day 10-12), the “purmorphamine concentration equivalent to SHH at 200 ng/ml for GABAergic progenitors” value was roughly 0.65 µM and the “purmorphamine concentration equivalent to SHH at 500 ng/ml for cholinergic progenitors” value is roughly 1 µM. In assay [3], the “Gsh2 mRNA versus control group (RT-qPCR)” value is recorded as “upregulated expression” and the “Pax6 mRNA versus control group (RT-qPCR)” value is on record as “downregulation”.
